Species on record: Rattus norvegicus
Test: DrugMatrix - Regimen: Daily Repeat
Assay type: toxicity, organism-based, Sprague-Dawley
Set-up: regimen Daily Repeat, gender Male, age 6-8 weeks
Settings: in vivo, po, route oral GAVAGE, vehicle 100 % WATER; for BASOPHIL / EOSINOPHIL / ERYTHROCYTE COUNT / HEMATOCRIT / HEMOGLOBIN / LEUKOCYTE COUNT / LYMPHOCYTE / MEAN CORPUSCULAR HEMOGLOBIN / MEAN CORPUSCULAR HEMOGLOBIN CONCENTRATION / MEAN CORPUSCULAR VOLUME / MONOCYTE / NEUTROPHIL / PLATELET COUNT: tissue Blood; for ALANINE AMINOTRANSFERASE / ALBUMIN / ALKALINE PHOSPHATASE / ASPARTATE AMINOTRANSFERASE / BLOOD UREA NITROGEN / CHLORIDE / CHOLESTEROL / CREATINE PHOSPHOKINASE / CREATININE / GLUCOSE / PHOSPHORUS / POTASSIUM / SODIUM / TOTAL BILIRUBIN / TOTAL PROTEIN: tissue Plasma
[1] = 0 mg/kg, 72 h, dose level Control, time 3 day
[2] = 0 mg/kg, 120 h, dose level Control, time 5 day
[3] = 100 mg/kg, 72 h, dose level Low, time 3 day
[4] = 100 mg/kg, 120 h, dose level Low, time 5 day
[5] = 1000 mg/kg, 72 h, dose level High, time 3 day
[6] = 1000 mg/kg, 120 h, dose level High, time 5 day

Oc1cccc(O)c1O [PYROGALLOL]
BASOPHIL [1]: 0% | EOSINOPHIL [1]: 0.5% | ERYTHROCYTE COUNT [1]: 5.8 x10E6/uL | HEMATOCRIT [1]: 35.07% | HEMOGLOBIN [1]: 14.12 G/DL | LEUKOCYTE COUNT [1]: 13.7 x10E3/uL | LYMPHOCYTE [1]: 82.33% | MEAN CORPUSCULAR HEMOGLOBIN [1]: 24.38 pg | MEAN CORPUSCULAR HEMOGLOBIN CONCENTRATION [1]: 40.28 G/DL | MEAN CORPUSCULAR VOLUME [1]: 60.52 fL | MONOCYTE [1]: 2.67% | NEUTROPHIL [1]: 14.5% | PLATELET COUNT [1]: 911.5 x10E3/uL | ALANINE AMINOTRANSFERASE [1]: 36.83 u/L | ALBUMIN [1]: 3.75 G/DL | ALKALINE PHOSPHATASE [1]: 399.83 u/L | ASPARTATE AMINOTRANSFERASE [1]: 66 u/L | BLOOD UREA NITROGEN [1]: 14.67 mg/dL | CHLORIDE [1]: 101.67 MEQ/L | CHOLESTEROL [1]: 66.33 mg/dL | CREATINE PHOSPHOKINASE [1]: 139.5 u/L | CREATININE [1]: 0.92 mg/dL | GLUCOSE [1]: 175 mg/dL | PHOSPHORUS [1]: 11.42 mg/dL | POTASSIUM [1]: 7.03 MEQ/L | SODIUM [1]: 148.5 MEQ/L | TOTAL BILIRUBIN [1]: 1.13 mg/dL | TOTAL PROTEIN [1]: 6.87 G/DL | BASOPHIL [2]: 0% | EOSINOPHIL [2]: 0.2% | ERYTHROCYTE COUNT [2]: 6.02 x10E6/uL | HEMATOCRIT [2]: 36.48% | HEMOGLOBIN [2]: 14.38 G/DL | LEUKOCYTE COUNT [2]: 12.34 x10E3/uL | LYMPHOCYTE [2]: 83% | MEAN CORPUSCULAR HEMOGLOBIN [2]: 23.92 pg | MEAN CORPUSCULAR HEMOGLOBIN CONCENTRATION [2]: 39.44 G/DL | MEAN CORPUSCULAR VOLUME [2]: 60.66 fL | MONOCYTE [2]: 3% | NEUTROPHIL [2]: 13.8% | PLATELET COUNT [2]: 1190.6 x10E3/uL | ALANINE AMINOTRANSFERASE [2]: 43 u/L | ALBUMIN [2]: 3.73 G/DL | ALKALINE PHOSPHATASE [2]: 393 u/L | ASPARTATE AMINOTRANSFERASE [2]: 62.33 u/L | BLOOD UREA NITROGEN [2]: 16.33 mg/dL | CHLORIDE [2]: 101.67 MEQ/L | CHOLESTEROL [2]: 65.5 mg/dL | CREATINE PHOSPHOKINASE [2]: 130.67 u/L | CREATININE [2]: 0.58 mg/dL | GLUCOSE [2]: 180.67 mg/dL | PHOSPHORUS [2]: 11.28 mg/dL | POTASSIUM [2]: 7.05 MEQ/L | SODIUM [2]: 148.17 MEQ/L | TOTAL BILIRUBIN [2]: 0.72 mg/dL | TOTAL PROTEIN [2]: 6.83 G/DL | BASOPHIL [3]: 0% | EOSINOPHIL [3]: 0.5% | ERYTHROCYTE COUNT [3]: 5.78 x10E6/uL | HEMATOCRIT [3]: 35.75% | HEMOGLOBIN [3]: 13.85 G/DL | LEUKOCYTE COUNT [3]: 11.7 x10E3/uL | LYMPHOCYTE [3]: 88% | MEAN CORPUSCULAR HEMOGLOBIN [3]: 24.05 pg | MEAN CORPUSCULAR HEMOGLOBIN CONCENTRATION [3]: 38.75 G/DL | MEAN CORPUSCULAR VOLUME [3]: 61.95 fL | MONOCYTE [3]: 1% | NEUTROPHIL [3]: 10.5% | PLATELET COUNT [3]: 1307.5 x10E3/uL | ALANINE AMINOTRANSFERASE [3]: 36.33 u/L | ALBUMIN [3]: 3.67 G/DL | ALKALINE PHOSPHATASE [3]: 323 u/L | ASPARTATE AMINOTRANSFERASE [3]: 59.33 u/L | BLOOD UREA NITROGEN [3]: 13 mg/dL | CHLORIDE [3]: 101.33 MEQ/L | CHOLESTEROL [3]: 71 mg/dL | CREATINE PHOSPHOKINASE [3]: 134.67 u/L | CREATININE [3]: 0.6 mg/dL | GLUCOSE [3]: 200 mg/dL | PHOSPHORUS [3]: 13.27 mg/dL | POTASSIUM [3]: 7.37 MEQ/L | SODIUM [3]: 149.67 MEQ/L | TOTAL BILIRUBIN [3]: 0.5 mg/dL | TOTAL PROTEIN [3]: 6.67 G/DL | BASOPHIL [4]: 0% | EOSINOPHIL [4]: 0% | ERYTHROCYTE COUNT [4]: 6.06 x10E6/uL | HEMATOCRIT [4]: 36.63% | HEMOGLOBIN [4]: 14.83 G/DL | LEUKOCYTE COUNT [4]: 14.27 x10E3/uL | LYMPHOCYTE [4]: 90.67% | MEAN CORPUSCULAR HEMOGLOBIN [4]: 24.53 pg | MEAN CORPUSCULAR HEMOGLOBIN CONCENTRATION [4]: 40.53 G/DL | MEAN CORPUSCULAR VOLUME [4]: 60.5 fL | MONOCYTE [4]: 2.33% | NEUTROPHIL [4]: 7% | PLATELET COUNT [4]: 1156 x10E3/uL | ALANINE AMINOTRANSFERASE [4]: 34.67 u/L | ALBUMIN [4]: 3.8 G/DL | ALKALINE PHOSPHATASE [4]: 375.67 u/L | ASPARTATE AMINOTRANSFERASE [4]: 59 u/L | BLOOD UREA NITROGEN [4]: 14 mg/dL | CHLORIDE [4]: 103.67 MEQ/L | CHOLESTEROL [4]: 67.33 mg/dL | CREATINE PHOSPHOKINASE [4]: 95.67 u/L | CREATININE [4]: 0.6 mg/dL | GLUCOSE [4]: 184.67 mg/dL | PHOSPHORUS [4]: 11.97 mg/dL | POTASSIUM [4]: 6.8 MEQ/L | SODIUM [4]: 151.67 MEQ/L | TOTAL BILIRUBIN [4]: 0.5 mg/dL | TOTAL PROTEIN [4]: 6.87 G/DL | BASOPHIL [5]: 0% | EOSINOPHIL [5]: 0.67% | ERYTHROCYTE COUNT [5]: 4.74 x10E6/uL | HEMATOCRIT [5]: 27.07% | HEMOGLOBIN [5]: 11.3 G/DL | LEUKOCYTE COUNT [5]: 18.97 x10E3/uL | LYMPHOCYTE [5]: 64% | MEAN CORPUSCULAR HEMOGLOBIN [5]: 23.87 pg | MEAN CORPUSCULAR HEMOGLOBIN CONCENTRATION [5]: 41.93 G/DL | MEAN CORPUSCULAR VOLUME [5]: 57.07 fL | MONOCYTE [5]: 1% | NEUTROPHIL [5]: 34.33% | PLATELET COUNT [5]: 1411 x10E3/uL | ALANINE AMINOTRANSFERASE [5]: 107.67 u/L | ALBUMIN [5]: 3.83 G/DL | ALKALINE PHOSPHATASE [5]: 223 u/L | ASPARTATE AMINOTRANSFERASE [5]: 109.33 u/L | BLOOD UREA NITROGEN [5]: 10.33 mg/dL | CHLORIDE [5]: 101.67 MEQ/L | CHOLESTEROL [5]: 67.33 mg/dL | CREATINE PHOSPHOKINASE [5]: 171 u/L | CREATININE [5]: 0.63 mg/dL | GLUCOSE [5]: 206.33 mg/dL | PHOSPHORUS [5]: 12.3 mg/dL | POTASSIUM [5]: 6.63 MEQ/L | SODIUM [5]: 149 MEQ/L | TOTAL BILIRUBIN [5]: 1.13 mg/dL | TOTAL PROTEIN [5]: 6.83 G/DL | BASOPHIL [6]: 0% | EOSINOPHIL [6]: 0% | ERYTHROCYTE COUNT [6]: 3.96 x10E6/uL | HEMATOCRIT [6]: 24.15% | HEMOGLOBIN [6]: 9.8 G/DL | LEUKOCYTE COUNT [6]: 13 x10E3/uL | LYMPHOCYTE [6]: 85.5% | MEAN CORPUSCULAR HEMOGLOBIN [6]: 24.9 pg | MEAN CORPUSCULAR HEMOGLOBIN CONCENTRATION [6]: 40.55 G/DL | MEAN CORPUSCULAR VOLUME [6]: 61.35 fL | MONOCYTE [6]: 2.5% | NEUTROPHIL [6]: 12% | PLATELET COUNT [6]: 1586 x10E3/uL | ALANINE AMINOTRANSFERASE [6]: 45 u/L | ALBUMIN [6]: 3.85 G/DL | ALKALINE PHOSPHATASE [6]: 303 u/L | ASPARTATE AMINOTRANSFERASE [6]: 67 u/L | BLOOD UREA NITROGEN [6]: 12 mg/dL | CHLORIDE [6]: 105 MEQ/L | CHOLESTEROL [6]: 49.5 mg/dL | CREATINE PHOSPHOKINASE [6]: 75 u/L | CREATININE [6]: 0.45 mg/dL | GLUCOSE [6]: 223.5 mg/dL | PHOSPHORUS [6]: 12.75 mg/dL | POTASSIUM [6]: 7.2 MEQ/L | SODIUM [6]: 148.5 MEQ/L | TOTAL BILIRUBIN [6]: 0.9 mg/dL | TOTAL PROTEIN [6]: 7.05 G/DL

Source: ChEMBL document CHEMBL3885881, “DrugMatrix”
